Test results as given in patent US8410130B2, “Synthesis of 8H-3A-aza-cyclopenta [A ]indenes and 5,10-dihydropyrrolo[1,2-B]isoquinolines derivatives and their use as antitumor therapeutic agents” (Academia Sinica, priority 2007, dated 2013).
Where two headings read alike, the source gives them in different places.

Tests used:
[1] = test system: CCRF-CEM human lymphoblastic leukemia cells; assay: In vitro cytotoxicity, XTT assay, 72-hr incubation; type: cell-based
From the text: (§1) Human colon carcinoma HCT-116 cells, human prostate adenocarcinoma PC-3 and adenocarcinoma SK-OV-3 cells were obtained from American Type Culture Collection (ATCC, Rockville, Md.). Human mammary carcinoma (MX-1) tumor cells were obtained from MSKCC cell bank. The CCRF-CEM human lymphoblastic leukemia cells and their vinblastine resistant subline (CCRF-CEM/VBL, 680-fold resistance in vitro) were obtained from Dr. William Beck of the University of Illinois, Chicago, and CCRF-CEM/Taxol (330-fold resistance in vitro). Resistant cells CCRF-CEM/taxol were produced by exposing the parent cells to increasing sublethal concentration (IC50-IC90) of paclitaxel for six months.
(§2) In preparation for in vitro cytotoxicity assays, cells were cultured at an initial density 2-5×10^4 cells per milliliter. They were maintained in a 5% CO2-humidified atmosphere at 37° C. in RPMI medium 1640 (GIBCO/BRL) containing penicillin (100 units/mL), streptomycin (100 μg/mL, GIBCO/BRL), and 5% heat-inactivated FBS. For cells grown in suspension (such as CCRF-CEM and its sublines), cytotoxicity was measured, by using XTT microculture method in 96-well microtiter plates (Scudiero D A et al., Cancer Res. 1988, 48, 4827-4833). For solid tumor cells growing in a monolayer (such as MX-1 and HCT-116), cytotoxicity of the drug was determined, in duplicate, in 96-well microtiter plates by using the sulforhodamine B method (Skehan P et al., J. Natl. Cancer Inst 1990, 82, 1107-1112). For both methods, the absorbance of each well was measured with a microplate reader (Power Wave XS, Bio-Tek, Winooski, Vt.) after 72-hr incubation as described previously (Chou T-C et al., Proc. Natl. Acad. Sci. USA 2001, 98, 8113-8118). Dose-effect relationship data from 6 to 7 concentrations of each drug, in duplicate, were analyzed by using a computer program (Chou T-C et al., ComboSyn, Inc., Paramus, N J. 2005) based on the median-effect principle and plot (Chou T-C et al., Adv. Enzyme Regul. 1984, 22, 27-55; Chou T-C, Pharmacol. Rev. 2006, 58, 621-681).
(§3) The IC50 is defined by the concentration required to inhibit tumor cell growth by 50%. […] The growth inhibition of the compounds disclosed herein against human lymphoblastic leukemic cells (CCRF-CEM) and its drug-resistant sublines (resistant to vinblastine and taxol, CCRF-CEM/VBL and CCRF-CEM/taxol, respectively) is also shown in Table 5. […] Thus, the compounds disclosed herein are effective against multiple drug resistant tumors.

CCRF-CEM/VBL = assay: In vitro cytotoxicity, XTT assay, vinblastine resistant subline; type: cell-based, human; conditions: for IC50: XTT assay, 72-hr incubation; for fold of cross-resistant, CCRF-CEM/VBL vs IC50 of the parent cell line: numbers in brackets
From the text: as §1, §2, §3

CCRF-CEM/Taxol = assay: In vitro cytotoxicity, XTT assay, taxol resistant subline; type: cell-based, human; conditions: for IC50: XTT assay, 72-hr incubation; for fold of cross-resistant, CCRF-CEM/Taxol vs IC50 of the parent cell line: numbers in brackets
From the text: as §1, §2, §3

[2] = test system: Human colon carcinoma HCT-116 cells; assay: In vitro cytotoxicity, sulforhodamine B (SRB) assay; type: cell-based
From the text: as §1, §2, §3

[3] = test system: Human mammary carcinoma (MX-1) tumor cells; assay: as above; type: cell-based; conditions: 72-hr incubation
From the text: as §1, §2, §3

[4] = test system: human mammary carcinoma MX-1 xenograft; assay: Therapeutic effect in nude mice bearing MX-1 xenograft; type: in vivo; conditions: intravenous injection
Method: FIGS. 2A-B illustrates the therapeutic effect of DA-1090, 1099, 1124, 1012 and 1107 in nude mice bearing human mammary carcinoma MX-1 xenograft (i.v. inj, n=3-4), average tumor size changes (FIG. 2A) and average body weight changes (FIG. 2B).
Athymic nude mice bearing the nu/nu gene were obtained from NCI, Frederick, Md. and used for all human tumor xenografts. Male nude mice, 6 weeks or older, weighing 20-24 g or more were used. Compounds were administered via the tail vein for i.v. injection or infusion as described previously (Chou T-C et al., Proc. Natl. Acad. Sci. USA 2001, 98, 8113-8118). Various formulations were prepared for injections into the mice for chemotherapeutic studies. As an example, a drug was dissolved in DSMO to make a 25 mg/ml fresh solution, 0.4 ml of this solution was mixed with 0.3 ml of Tween 80, plus 1.3 ml to make 2 ml of 5 mg/ml solution. Bolus injection volume was 0.1-0.2 ml per mouse.
Athymic nude mice bearing the nu/nu gene were used for human breast tumor MX-1 xenograft (FIGS. 2, 2A and 2B). Nude mice were obtained from National Cancer Institute, Frederick, Md. Male mice, 6 weeks old or older, weighing 22 g or more were used for experiments with subcutaneous tumor inoculation as described previously (Chou T-C, Pharmacol. Rev. 2006, 58, 621-681). Drug was administrated via the tail vein by iv injection. Tumor volumes were assessed by measuring length×width×height (or width) by using caliper. An example of vehicle used was 20 μL DMSO in 180 μL saline. All animal studies were conducted in accordance with the guidelines of the U.S. National Institutes of Health Guide for the Care and Use of Animals and the protocol approved by the Institutional Animal Care and Use Committee.

[5] = Homo sapiens, HCT-116, 72-hr incubation
[6] = 15 mg/kg, every other two days (Q2D), two times

Row | SMILES | IC50 ([1]; Homo sapiens, CCRF-CEM) | IC50 (CCRF-CEM/VBL; Homo sapiens, CCRF-CEM) | fold of cross-resistant, CCRF-CEM/VBL vs IC50 of the parent cell line (CCRF-CEM/VBL) | IC50 (CCRF-CEM/Taxol; Homo sapiens, CCRF-CEM) | fold of cross-resistant, CCRF-CEM/Taxol vs IC50 of the parent cell line (CCRF-CEM/Taxol) | IC50 [2, 5] | IC50 ([3]; Homo sapiens) | antitumor therapeutic effect (tumor size) ([4]; 5 mg/kg, daily (QD) 3 times) | toxicity ([4]; 5 mg/kg, daily (QD) 3 times) | IC50 [1] | IC50 (CCRF-CEM/VBL) | IC50 (CCRF-CEM/Taxol) | IC50 ([2]; 72-hr incubation) | IC50 [3] | antitumor therapeutic effect (tumor size) [4, 6] | toxicity [4, 6]
1 | CNC(=O)OCc1c(COC(=O)NC)c(-c2ccc(OC)cc2)n2c1Cc1ccccc1-2 [DA-1012, Methylcarbamic acid 3-(4-methoxy-phenyl)-2-methylcarbamoyloxymethyl-8H-3a-azacyclopenta[a]inden-1-ylmethyl ester] | 49 nM | 70 nM | [1.4x] | 58 nM | [1.2x] | 2740 nM | 1940 nM | tumor total disappearance | low toxicity | – | – | – | – | – | – | –
2 | CNC(=O)OCc1c(COC(=O)NC)c(-c2ccc(Cl)cc2)n2c1Cc1ccccc1C2 [DA-1117, methylcarbamic acid 3-(4-chlorphenyl)-2-methylcarbamoyloxymethyl-5,10-dihydropyrrolo[1,2-b]isoquinolin-1-ylmethyl ester] | – | – | [1.09x] | – | [1.13x] | – | – | – | – | 191 nM | 208 nM | 216 nM | 356 nM | 1170 nM | – | –
3 | COc1ccccc1-c1c(CO)c(CO)c2n1-c1ccccc1C2 [DA-1123, (2-Hydroxymethyl-3-(2-methoxyphenyl)-8H-3a-aza-cyclopenta[a]inden-1-yl)methanol] | 1010 nM | 1900 nM | [1.89x] | 2680 nM | [2.68x] | 13400 nM | 8640 nM | – | – | – | – | – | – | – | – | –
4 | CNC(=O)OCc1c(COC(=O)NC)c(-c2ccccc2OC)n2c1Cc1ccccc1-2 [DA-1124, Methylcarbamic acid 3-(2-methoxyphenyl)-2-methylcarbamoyloxymethyl-8H-3a-aza-cyclopenta[a]inden-1-ylmethyl ester] | 136 nM | 243 nM | [1.79x] | 360 nM | [2.65x] | 151 nM | 1330 nM | – | – | – | – | – | – | – | tumor total disappearance | low toxicity
5 | CNC(=O)OCc1c(COC(=O)NC)c(-c2ccc(OC)c(OC)c2)n2c1Cc1ccccc1-2 [DA-1125, Methylcarbamic acid 3-(3,4-dimethoxyphenyl)-2-methylcarbamoyloxymethyl-8H-3a-aza-cyclopenta[a]inden-1-ylmethyl ester] | 350 nM | 374 nM | [1.07x] | 497 nM | [1.42x] | 680 nM | 1840 nM | – | – | – | – | – | – | – | – | –
6 | COc1cccc(OC)c1-c1c(CO)c(CO)c2n1-c1ccccc1C2 [DA-1126, (3-(2,6-Dimethoxyphenyl)-2-hydroxymethyl-8H-3a-aza-cyclopenta[a]inden-1-yl)methanol] | 8140 nM | 251 nM | [0.03x] | 741 nM | [0.09x] | 43700 nM | 25500 nM | – | – | – | – | – | – | – | – | –
7 | CNC(=O)OCc1c(COC(=O)NC)c(-c2c(OC)cccc2OC)n2c1Cc1ccccc1-2 [DA-1127, Methylcarbamic acid 3-(2,6-dimethoxyphenyl)-2-methylcarbamoyloxymethyl-8H-3a-aza-cyclopenta[a]inden-1-ylmethyl ester] | 640 nM | 697 nM | [1.08x] | 616 nM | [0.96x] | 1110 nM | 5480 nM | – | – | – | – | – | – | – | – | –
8 | COc1cc(-c2c(CO)c(CO)c3n2-c2ccccc2C3)cc(OC)c1OC [DA-1128, (2-Hydroxymethyl-3-(3,4,5-trimethoxyphenyl)-8H-3a-aza-cyclopenta[a]inden-1-yl)-methanol] | 2050 nM | 1140 nM | [0.56x] | 1040 nM | [0.50x] | 30600 nM | 17600 nM | – | – | – | – | – | – | – | – | –
9 | CNC(=O)OCc1c(COC(=O)NC)c(-c2cc(OC)c(OC)c(OC)c2)n2c1Cc1ccccc1-2 [DA-1129, Methylcarbamic acid 3-(3,4,5-trimethoxyphenyl)-2-methylcarbamoyloxymethyl-8H-3a-aza-cyclopenta[a]inden-1-ylmethyl ester] | 11800 nM | 8400 nM | [0.71x] | 14300 nM | [1.21x] | 1830 nM | 7250 nM | – | – | – | – | – | – | – | – | –
10 | COc1ccc(-c2c(CO)c(CO)c3n2-c2ccc(OC)cc2C3)cc1 [DA-1130, (2-hydroxymethyl-6-methoxy-3-(4′-methoxyphenyl)-8H-3a-aza-cyclopenta[a]inden-1-yl)methanol] | – | – | [0.52x] | – | [1.10x] | – | – | – | – | 118 nM | 61 nM | 130 nM | 610 nM | 1520 nM | – | –
11 | CNC(=O)OCc1c(COC(=O)NC)c(-c2ccc(OC)cc2)n2c1Cc1cc(OC)ccc1-2 [DA-1131, methylcarbamic acid 6-methoxy-3-(4-methoxyphenyl)-2-methylcarbamoyl-oxymethyl-8H-3a-aza-cyclopenta[a]inden-1-ylmethyl ester] | 62 nM | 63.9 nM | [1.03x] | 96.2 nM | [1.55x] | 455 nM | 878 nM | – | – | – | – | – | – | – | – | –
12 | CC(=O)O[C@H]1C(=O)[C@@]2(C)[C@H]([C@H](OC(=O)c3ccccc3)[C@]3(O)C[C@H](OC(=O)[C@H](O)[C@@H](NC(=O)c4ccccc4)c4ccccc4)C(C)=C1C3(C)C)[C@]1(OC(C)=O)CO[C@@H]1C[C@@H]2O [Taxol, reference compound] | 1.3 nM | 429 nM | [330x] | 1270 nM | – | 1.3 nM | 35 nM | – | – | – | – | – | – | – | – | –
13 | CC[C@]1(O)C[C@@H]2CN(CCc3c([nH]c4ccccc34)[C@@](C(=O)OC)(c3cc4c(cc3OC)N(C)[C@H]3[C@@](O)(C(=O)OC)[C@H](OC(C)=O)[C@]5(CC)C=CCN6CC[C@]43[C@@H]65)C2)C1 [Vinblastine, reference compound] | 0.73 nM | 78 nM | – | 496 nM | [679.5x] | 1.8 nM | 2.9 nM | – | – | – | – | – | – | – | – | –
